Experimental data published in patent publication US8470311B2, “Therapeutic agent for anaerobic diseases” (priority 2008, dated 2013).
Entries after “also recorded” stand apart in the source; their conditions may differ.

What was measured:
[1] = system: Human breast cancer cell line KPL-1; experiment: Tumor growth suppression by B. longum Re-105A/pBifiCD, 5-FC and maltose or lactulose, KPL-1 tumor-bearing nude mice; assay type: in vivo, nude mouse
[2] = system: Human stomach cancer cell line MKN45; experiment: Tumor growth suppression by B. longum Re-105A/pBifiCD, 5-FC and maltose, MKN45 tumor-bearing nude rats; assay type: in vivo, nude rat; conditions: maltose 200 mg/body/day ip with bacteria and 5-FC
[3] = system: Human breast cancer cell line KPL-1; conditions: 10% maltose ip versus saline

Compound: OC[C@H]1O[C@@H](O[C@@H]2[C@@H](CO)OC(O)(CO)[C@H]2O)[C@H](O)[C@@H](O)[C@H]1O (mixture of isomers) [lactulose]
- Mice died during test ([1]; Group C: bacteria, 5-FC, 20% (w/v) lactulose 1 mL ip once a day, deaths Day 13 and Day 19): two mice had died during the administration period
- Effect of lactulose, conclusion of the test ([1]; lactulose 200 mg/day ip with bacteria and 5-FC): can enhance the antitumor effect of B. longum Re-105A/pBifiCD

Compound: OC[C@H]1O[C@H](O[C@H]2[C@H](O)[C@@H](O)[C@H](O)O[C@@H]2CO)[C@H](O)[C@@H](O)[C@@H]1O [Maltose]
- Effect of maltose, conclusion of the test [2]: effect in promoting specific colonization of B. longum Re-105A/pBifiCD in tumor tissue, and an effect in promoting proliferation and an effect in maintaining proliferation in tumor tissue
- Effect of maltose on colonization and proliferation in tumor tissue [3]: effect in promoting specific colonization of B. longum Re-105A/pBifiCD in tumor tissue; also recorded: effect in promoting the proliferation and an effect of maintaining the proliferation of B. longum Re-105A/pBifiCD in tumor tissue
